Reference: patent EP0450065A1, “ANTIVIRAL AGENT” (priority 1988, dated 1990)
Like-named read-outs stand apart in the source and are kept apart here.

How the values were obtained:
Type in all cases: cell-based
[1] = test system: herpes simplex virus type 1 (KOS strain); experiment: Control of CPE (cytopathic effect) manifestation in vero cells; details: 30 μg/ml, HSV-1 (KOS), Example 7
Protocol: (§1) Vero cells cultured and grown in a monolayer on microplates to test for cytopathic effect due to viral infection, with solutions of Compound A diluted to varying ratios and solutions of virus diluted to varying ratios added severally thereto in a volume of 0.1 ml, were cultured under the conditions of 5% CO₂ and 37°C and were examined for CPE manifestation under a microscope. The observation was continued for five to six days.
(§2) The degree of CPE brought about by viral infection was rated on the five-point scale, wherein 3 stands for CPE observed on not less than 75% of cultured cells, 2 for CPE observed on 50% of cultured cells, 1 for CPE observed on 25% of cultured cells, 0.5 for occurrence of one to two extremely minute DPE spots, and 0 for perfect absence of recognizable CPE. The CPE scores obtained at the four holes in each microplate were averaged and the difference of the average from the average obtained in the control (omitting the treatment with a chemical) was reported as ΔCPE.
(§3) Antiviral activity of Compound A and Compound B against herpes simplex virus type 1 (KOS strain) The test was carried out by following the procedure of Example 3.

[2] = test system: herpes simplex virus type 1 (KOS strain); experiment: One-step growth of virus, plaque assay with vero cells; details: 30 μg/ml, 24 hours; for log reduction at 30 µg/mL: 24 h, read-out: Intracellular virus Control ratio -logT/C
Protocol: Antiviral activity of Compound A and Compound B against one-step growth of herpes simplex virus type 1 (KOS strain) Cells grown in a monolayer, with a sample of a given compound diluted in a varying ratio added, were pretreated for 15 minutes. Then, the pretreated cells were infected with the herpes simplex virus type 1 (KOS strain) at an infecting ratio of 0.25 and left standing for 24 hours. At the end of the standing, the intracellular and extracellular amounts of virus were determined by the plaque assay with vero cells.

[3] = test system: herpes simplex virus type 1 (HF strain); experiment: 50% Tissue culture infective dose (TCID50), Read-Munch method, negative logarithm of virus dilution
Protocol: (§4) In vitro antiviral activity of Compound A against herpes simplex virus type 1 (HF strain) Compound A was tested for antiviral effect by the following two methods.
(§5) The amount of virus infecting 50% of tissues (TCID₅₀) was determined by the Read-Munch method and expressed in negative logarithm of the maximum radio of dilution of virus. The difference of the amount thus determined from the amount found in the control (omitting the treatment with a chemical) was reported as ΔTCID₅₀. A sample whose ΔCPE's found on the last day of observation and on each of the days spent for the observation exceeded 1.0 was evaluated as effective.
(§6) In vitro antiviral effect of Compound A against herpes simplex virus type 1 (HF strain) The test was carried out by following the procedure of Example 3.

[4] = test system: herpes simplex virus type 1 (HF strain); experiment: Control of CPE (cytopathic effect) manifestation in vero cells; details: 20 μg/ml, HSV-1 (HF strain), Example 5
Protocol: as §4, §1, §2, §6

[5] = test system: herpes simplex virus type 2 (169 strain); experiment: 50% Tissue culture infective dose (TCID50), Read-Munch method, negative logarithm of virus dilution; design: key to Cytopathic effect [CPE] (5days) △TCID50 / Cytopathic effect [CPE] (6days) △TCID50 / Cytopathic effect [CPE] (3days) △TCID50: difference in -log TCID50 from untreated control; details: HSV-2 (169), Example 6
Protocol: as §5
(§7) In vitro antiviral activity of Compound A against herpes simplex virus type 2 (169 strain) The test was carried out by following the procedure of Example 3.

[6] = test system: herpes simplex virus type 1 (KOS strain); experiment: as above
Protocol: as §5, §3

[7] = test system: herpes simplex virus type 2 (169 strain); experiment: Control of CPE (cytopathic effect) manifestation in vero cells; details: 20 μg/ml, HSV-2 (169), Example 6
Protocol: as §1, §2, §7

[8] = 20 μg/ml, HSV-1 (HF strain), Example 5
[9] = 30 μg/ml, HSV-1 (KOS), Example 7

Nc1ncnc2c1ncn2[C@@H]1O[C@H](CO)[C@@H](O)[C@@H]1O [Ara A, adenine arabinoside, reference compound]
Cytopathic effect [CPE] (3days) Average [1]: 1.0 | Cytopathic effect [CPE] (5days) Average [1]: 2.0 | Cytopathic effect [CPE] (3days) △CPE ([1]; difference from control): 1.0 | Cytopathic effect [CPE] (5days) △CPE ([1]; difference from control): 1.0 | Intracellular virus Average ([2]; extracellular virus): 3.93×10^3 /dish | Intracellular virus Average [2]: 7.38×10^4 /dish | log reduction at 30 µg/mL ([2]; Human alphaherpesvirus 1, Vero, extracellular virus): 3.88 | log reduction at 30 µg/mL ([2]; Human alphaherpesvirus 1, Vero): 4.74 | inhibition at 30 µg/mL ([2]; Human alphaherpesvirus 1, Vero, read-out: Intracellular virus Control ratio %): > 99.9% | Cytopathic effect [CPE] (3days) TCID50 [3, 8]: 6.5 | Cytopathic effect [CPE] (6days) TCID50 [3, 8]: 6.5 | Cytopathic effect [CPE] (6days) ΔTCID50 ([3]; 20 μg/ml, HSV-1 (HF strain), Example 5, difference from control): no discernible antiviral effect | log reduction at 20 µg/mL ([3]; Human alphaherpesvirus 1, 72 h, read-out: Cytopathic effect [CPE] (3days) ΔTCID50): -0.2 | log reduction at 20 µg/mL ([3]; Human alphaherpesvirus 1, 144 h, read-out: Cytopathic effect [CPE] (6days) ΔTCID50): -0.2 | Cytopathic effect [CPE] (3days) Average [4]: 2.5 | Cytopathic effect [CPE] (6days) Average [4]: 3.0 | Cytopathic effect [CPE] (3days) ΔCPE ([4]; difference from control): 0.25 | Cytopathic effect [CPE] (6days) ΔCPE ([4]; difference from control): 0 | Cytopathic effect [CPE] (3days) TCID50 ([5]; 20 μg/ml): 7.0 | Cytopathic effect [CPE] (6days) TCID50 ([5]; 20 μg/ml): 7.5 | Cytopathic effect [CPE] (6days) △TCID50 ([5]; 20 μg/ml, difference from control): nil | log reduction at 20 µg/mL ([5]; Human alphaherpesvirus 2, 72 h, read-out: Cytopathic effect [CPE] (3days) △TCID50, 20 μg/ml, difference from control): -0.3 | log reduction at 20 µg/mL ([5]; Human alphaherpesvirus 2, 144 h, read-out: Cytopathic effect [CPE] (6days) △TCID50, 20 μg/ml, difference from control): -0.8 | Cytopathic effect [CPE] (3days) TCID50 [6, 9]: 5.0 | Cytopathic effect [CPE] (5days) TCID50 [6, 9]: 5.7 | log reduction at 30 µg/mL ([6]; Human alphaherpesvirus 1, 72 h, read-out: Cytopathic effect [CPE] (3days) △TCID50): 0.5 | log reduction at 30 µg/mL ([6]; Human alphaherpesvirus 1, 120 h, read-out: Cytopathic effect [CPE] (5days) △TCID50): 0.3 | Cytopathic effect [CPE] (3days) Average [7]: 0.5 | Cytopathic effect [CPE] (6days) Average [7]: 3.0 | Cytopathic effect [CPE] (3days) △CPE ([7]; difference from control): 1.0 | Cytopathic effect [CPE] (6days) △CPE ([7]; difference from control): 0
